Patent publication US4337199A, “Antibiotic β-lactam compounds, production thereof, and their use as antimicrobial agent” (Sanraku-Ocean Co., Ltd., priority 1978, dated 1982)
≈ marks a conversion by molar mass, not a printed value. Read-outs that look alike come from different tables or passages of the source.

Legend:
[1] = tested on: Alcaligenes faecalis B326; assay: minimum inhibitory concentration, agar dilution assay; format: cell-based; settings: read-out: minimum inhibitory concentration
In short: (§1)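 Two-fold compound dilutions were incorporated into heart infusion agar. Plates were inoculated with overnight Trypto-Soy broth cultures (35 °C, 18-20 h) diluted to about 10^8 cells/ml. After 20 h at 35 °C, MIC was taken as the lowest concentration with no growth.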

[2] = tested on: Bacillus subtilis ATCC 6633; assay: as above; format: cell-based; settings: read-out: minimum inhibitory concentration
In short: as §1

[3] = tested on: Staphylococcus aureus FDA 209P; assay: as above; format: cell-based; settings: FDA209P, read-out: minimum inhibitory concentration
In short: as §1

Sarcina lutea = assay: as above; format: cell-based; settings: Micrococcus luteus, read-out: minimum inhibitory concentration
In short: as §1

[4] = tested on: Comamonas terrigena B-996; assay: as above; format: cell-based; settings: read-out: minimum inhibitory concentration
In short: as §1

[5] = tested on: Staphylococcus epidermidis; assay: as above; format: cell-based; settings: read-out: minimum inhibitory concentration
In short: as §1

[6] = Test for concentration in blood (plasma of mouse, bioassay); format: in vivo; settings: sc, subcutaneous, 2 mg/mouse, average of five mice
Experimental: Typical species of the compounds of formula (I-d) were each administered subcutaneously to five mice in a dose of 2 mg. After 5 minutes from the administration, a small amount of blood was periodically drawn from the eyes of the mice into a heparinized capillary tube, and centrifuged. The concentration of the compound in the supernatant liquid (plasma) was determined by a bioassay method using Comamonas terrigena B-996.

[7] = tested on: Staphylococcus aureus Smith strain; assay: Infection treating test; format: in vivo, Staphylococcus aureus (in ddy male mice); settings: sc, 2 h, mice infected intraperitoneally, 5×10^5 cells per mouse, subcutaneous, two hours after infection, read-out: CD50 (the source's name)
Experimental: The in vivo activities of the compounds of formula (I-d) were determined by using mice (five per group, ddy male mice, Shizuoka) which had been intraperitoneally infected with Staphylococcus aureus Smith strain in an amount of 5×10^5 cells per mouse. Two hours after the infection, an injection containing a sodium salt of each of the compounds of formula (I-d) was subcutaneously administered to the mice.

[8] = tested on: Citrobacter freundii GN 346; assay: minimum inhibitory concentration, agar dilution assay; format: cell-based; settings: GN346, agar dilution, 35° C., 20 hours, read-out: minimum inhibitory concentration
In short: as §1

Escherichia coli RGN 823 = assay: as above; format: cell-based; settings: RGN823, agar dilution, 35° C., 20 hours, read-out: minimum inhibitory concentration
In short: as §1

Proteus mirabilis P6 = assay: as above; format: cell-based; settings: P6, agar dilution, 35° C., 20 hours, read-out: minimum inhibitory concentration
In short: as §1

[9] = tested on: Pseudomonas aeruginosa IFO3445; assay: as above; format: cell-based; settings: IFO3445, agar dilution, 35° C., 20 hours, read-out: minimum inhibitory concentration
In short: as §1

[10] = tested on: Pseudomonas aeruginosa NCTC10490; assay: as above; format: cell-based; settings: NCTC10490, agar dilution, 35° C., 20 hours, read-out: minimum inhibitory concentration
In short: as §1

[11] = tested on: Enterobacter aerogenes E19; assay: as above; format: cell-based; settings: Klebsiella aerogenes, E19; agar dilution, 35° C., 20 hours; read-out: minimum inhibitory concentration
In short: as §1

Providencia sp. P8 = assay: as above; format: cell-based; settings: SP.P8, agar dilution, 35° C., 20 hours, read-out: minimum inhibitory concentration
In short: as §1

[12] = tested on: Staphylococcus aureus Smith; assay: as above; format: cell-based; settings: agar dilution, 35° C., 20 hours, read-out: minimum inhibitory concentration
In short: as §1

[13] = tested on: Staphylococcus aureus Russell; assay: as above; format: cell-based; settings: agar dilution, 35° C., 20 hours, read-out: minimum inhibitory concentration
In short: as §1

Escherichia coli K-12 = assay: as above; format: cell-based; settings: read-out: minimum inhibitory concentration
In short: as §1

Serratia marcescens T55 = assay: as above; format: cell-based; settings: T55, agar dilution, 35° C., 20 hours, read-out: minimum inhibitory concentration
In short: as §1

Enterobacter cloacae 45 = assay: as above; format: cell-based; settings: Enterobacter cloacae, 45; agar dilution, 35° C., 20 hours; read-out: minimum inhibitory concentration
In short: as §1

Proteus vulgaris GN76 = assay: as above; format: cell-based; settings: GN76, agar dilution, 35° C., 20 hours, read-out: minimum inhibitory concentration
In short: as §1

Proteus rettgeri P7 = assay: as above; format: cell-based; settings: Providencia rettgeri, P7; agar dilution, 35° C., 20 hours; read-out: minimum inhibitory concentration
In short: as §1

[14] = tested on: Klebsiella pneumoniae K-13; assay: as above; format: cell-based; settings: K13, agar dilution, 35° C., 20 hours, read-out: minimum inhibitory concentration
In short: as §1

Alcaligenes faecalis A 1 = assay: as above; format: cell-based; settings: A1, agar dilution, 35° C., 20 hours, read-out: minimum inhibitory concentration
In short: as §1

Proteus sp. P22 = assay: as above; format: cell-based; settings: agar dilution, 35° C., 20 hours; read-out: minimum inhibitory concentration
In short: as §1

Serratia marcescens S18 = assay: as above; format: cell-based; settings: S18, agar dilution, 35° C., 20 hours, read-out: minimum inhibitory concentration
In short: as §1

Enterobacter sp. E8 = assay: as above; format: cell-based; settings: SP.E8, agar dilution, 35° C., 20 hours, read-out: minimum inhibitory concentration
In short: as §1

[15] = tested on: Gram-positive and Gram-negative bacteria; settings: stated as known; cited from earlier work
solubility = format: physicochemical
[16] = ATCC6633, agar dilution, 35° C., 20 hours
[17] = agar dilution, 35° C., 20 hours
[18] = B996, agar dilution, 35° C., 20 hours

| SMILES | MIC [2, 16] [mg/L] | MIC [3, 17] [mg/L] | MIC (Sarcina lutea; [17]) [mg/L] | MIC [4, 18] [mg/L] | MIC [5, 17] [mg/L] | MIC [8] [mg/L] | MIC (Escherichia coli RGN 823) [mg/L] | MIC (Proteus mirabilis P6) [mg/L] | MIC [9] [mg/L] | MIC [10] [mg/L] | MIC [11] [mg/L] | MIC (Providencia sp. P8) [mg/L] | MIC [12] [mg/L] | MIC [13] [mg/L] | MIC (Serratia marcescens T55) [mg/L] | MIC (Enterobacter cloacae 45) [mg/L] | MIC (Proteus vulgaris GN76) [mg/L] | MIC (Proteus rettgeri P7) [mg/L] | MIC [14] [mg/L] | MIC (Alcaligenes faecalis A 1) [mg/L] | also measured |
| --- | --- | --- | --- | --- | --- | --- | --- | --- | --- | --- | --- | --- | --- | --- | --- | --- | --- | --- | --- | --- | --- |
| CCCCSC1=C(C(=O)O)N2C(=O)C(C(C)C)C2C1 (stereo not drawn) [R1 CH3, R21 (CH2CH3)3] | 15 (≈ 52.9 µM) | 0.48 (≈ 1.69 µM) | 7.5 (≈ 26.5 µM) | 0.48 (≈ 1.69 µM) | 0.12 (≈ 0.423 µM) |  |  |  |  |  |  |  |  |  |  |  |  |  |  |  | MIC ([1]; B326, agar dilution, 35° C., 20 hours): 20 mg/L (≈ 70.6 µM) |
| CCCCSC1=C(C(=O)[O-])N2C(=O)C(CC)C2C1.[Na+] (stereo not drawn) [Example 68, Sodium 3-n-butylthio-6-ethyl-7-oxo-1-azabicyclo[3.2.0]hept-2-ene-2-carboxylate] |  |  |  |  |  |  |  |  |  |  |  |  |  |  |  |  |  |  |  |  | MIC ([1]; B326, 20 h): 15 mg/L; MIC ([2]; ATCC6633, 20 h): 3.75 mg/L; MIC ([3]; 20 h): 0.24 mg/L; MIC (Sarcina lutea; 20 h): 1.88 mg/L; MIC ([4]; B996, 20 h): 0.24 mg/L; MIC ([5]; 20 h): 0.12 mg/L |
| CC(=O)NCCSC1=C(C(=O)O)N2C(=O)[C@H](C(C)O)[C@H]2C1 (stereo partly drawn) [PS-3A . Na] |  |  |  |  |  |  |  |  |  |  |  |  |  |  |  |  |  |  |  |  | half-life ([6]; read-out: Half period): 12 min; Cmax ([6]; read-out: Maximum concentration): 52 µg/mL; ED50 [7]: 4 mg/kg |
| Cc1nnc(SCC2=C(C(=O)O)N3C(=O)[C@@H](NC(=O)Cn4cnnn4)[C@H]3SC2)s1 [CEZ, cephazolin, reference compound] | 0.2 (≈ 0.44 µM) | 0.1 (≈ 0.22 µM) | 0.39 (≈ 0.858 µM) | 0.2 (≈ 0.44 µM) | 0.1 (≈ 0.22 µM) | > 200 | 200 (≈ 440 µM) | 6.25 (≈ 13.8 µM) | > 200 | > 200 | > 200 | 100 (≈ 220 µM) | 0.2 (≈ 0.44 µM) | 0.2 (≈ 0.44 µM) | > 200 | > 200 | > 200 | > 200 | 200 (≈ 440 µM) | 3.13 (≈ 6.89 µM) | MIC (Escherichia coli K-12; K12, 20 h): 1.56 mg/L (≈ 3.43 µM); MIC (Proteus sp. P22): > 200 mg/L; MIC (Serratia marcescens S18): > 200 mg/L; MIC (Enterobacter sp. E8): 3.13 mg/L (≈ 6.89 µM); effectiveness against Pseudomonas aeruginosa and Serratia, Proteus, Klebsiella, Enterobacter [15]: known to be effective against Pseudomonas aeruginosa and microorganisms of the genus Serratia, Proteus, Klebsiella, and Enterobacter |
| CC(=O)NCCSC1=C(C(=O)O)N2C(=O)[C@H](C(C)O)[C@H]2C1 (stereo partly drawn) [PS-3A, 3-(2-acetamidoethylthio)-6-(1-hydroxyethyl)-7-oxo-1-azabicyclo[3.2.0]hept-2-ene-2-carboxylic acid, reference compound] | 1.25 (≈ 3.98 µM) | 0.31 (≈ 0.986 µM) | 0.63 (≈ 2 µM) | 0.08 (≈ 0.254 µM) | 2.5 (≈ 7.95 µM) | 10 (≈ 31.8 µM) | 5 (≈ 15.9 µM) | 20.1 (≈ 63.9 µM) | 20.1 (≈ 63.9 µM) | 20.1 (≈ 63.9 µM) | 20.1 (≈ 63.9 µM) | 5 (≈ 15.9 µM) | 1.25 (≈ 3.98 µM) | 1.25 (≈ 3.98 µM) | 20.1 (≈ 63.9 µM) | 10 (≈ 31.8 µM) | 20.1 (≈ 63.9 µM) | 20.1 (≈ 63.9 µM) | 10 (≈ 31.8 µM) | 1.25 (≈ 3.98 µM) | MIC (Escherichia coli K-12; K12, agar dilution, 35° C., 20 hours): 2.5 mg/L (≈ 7.95 µM); MIC (Proteus sp. P22): 20.1 mg/L (≈ 63.9 µM); MIC (Serratia marcescens S18): 10 mg/L (≈ 31.8 µM); MIC (Enterobacter sp. E8): 5 mg/L (≈ 15.9 µM); Solubility in acetone (solubility; acetone): substantially insoluble in acetone; Solubility in water (solubility; water): Readily soluble in water |
